Turning to `CCN1c2nc(Cl)ccc2NC(=O)c2cc(CCc3cccc(NS(C)(=O)=O)c3)cnc21`, the melting point (commonly the temperature, or range, at which the solid turns liquid) is 131 to 132 °C.
The same measure for `Cc1c(-c2cc(F)ccc2F)[nH]c(N)c1C#N`: 146 to 147 °C; for `COc1cc(OC)c(C23CC4CC(CC(C4)C2)C3)cc1C#Cc1ccc(C(=O)O)cc1`: 152 to 154 °C.
The same measure for `CCC1=Nc2ccccc2CC(c2ccc(C)s2)N1C` (stereo not drawn): 66 °C; for `COC(=O)C(C)Oc1ccc(Oc2ncc(Cl)cc2[N+](=O)[O-])cc1` (stereo not drawn): 91 to 92 °C.
The same measure for `COc1ccc(S(N)(=O)=O)cc1C1CO1` (stereo not drawn): 118 °C.
For the molecule `CC(=O)SCC(Cc1ccccc1)C(=O)NC1(C(=O)O)CC1` (stereo not drawn), the melting point lay within 169 to 171 °C.
Then `COc1ccccc1OCCNCCCc1c[nH]c2ccc(F)cc12`, with 125 to 126 °C.
Then `O=C(O)CCc1cnoc1-c1ccc(F)c(Cl)c1`, with 118 to 119 °C; and `CCc1nc2c(N)nc3cc(OCCc4c[nH]c5ccccc45)ccc3c2s1`, with 218 to 220 °C.
Then `OCc1nc2n(n1)-c1cccnc1N(c1ccc(Cl)cc1)C2`, with 240 to 245 °C.
As to `Cc1cnc(NCCc2ccccn2)c(=O)n1NC(=O)CCc1cc(Cl)ccc1Cl`, the melting point was in the range of 188 to 191 °C.
The same measure for `COC(=O)C=C(Nc1coc2ccc(Cl)cc2c1=O)C(=O)OC`: 158 to 160 °C.
The same measure for `COc1ccc(S(=O)(=O)Nc2ccc(C)cc2)c2c3ccccc3n(C=O)c12`: 193 to 199 °C.
With `COC(=O)CS(=O)(=O)C(C)c1ccc(-c2ccccc2)cc1` (stereo not drawn), the melting point lay in the range of 79 to 80 °C.
The molecule `O=C(NCCCCN1CCC(c2ccc3c(c2)CCCC3)CC1)c1ccc(NC(=O)c2ccc(Cl)cc2)cc1` came in with a melting point of 285 °C.
`COc1ccc(NN=C(Sc2c(C)cccc2C)C(C)=O)cc1` showed a melting point of 107 to 109 °C.
Then `COc1ccc2c(=O)cc(-c3ccc(F)cc3)oc2c1`, with 162 °C.
`N#CC(C(=O)c1ccc([N+](=O)[O-])cc1)=C1CCCCN1` yielded a melting point of 182 °C.
Then `Cc1nc(Cl)c2c(n1)N(c1c(C)cc(Br)cc1C)C(=O)C2C` (stereo not drawn), with 148 to 150 °C.
Then `C#CCSc1ccc([N+](=O)[O-])cn1`, with 98 to 99.5 °C.
`CCCc1nc(C(C)(C)O)c(C(=O)O)n1Cc1ccc(-c2ccccc2C(=O)C(=O)O)cc1` gave a melting point of 183 to 185 °C.
Consider `CCOC(=O)C1=CC2=C(C)C(C)(OC)C=C(C)C2=N1` (stereo not drawn), for which the melting point fell in the range of 182 to 183 °C.
Then `CCCCc1nc(Cl)c(C=O)n1Cc1ccc(-c2nc3ccccn3c2C(=O)O)cc1`, with 120 to 123 °C.
Then `O=C1CC=C(c2c[nH]c3cc([N+](=O)[O-])ccc23)CC1`, with 175 to 177 °C.
Then `COc1ccc2c(c1)C(c1ccc([N+](=O)[O-])cc1)=NNC(=O)C2`, with 282 °C.
The molecule `N=C(Nc1ccc(OCCNCc2ccccc2)cc1F)c1cccs1` returned a melting point of 105 to 107 °C.
`CC(C)OC(=O)Nc1ccc(C2=NNC(=O)CC2C)cc1` (stereo not drawn): the melting point lay in the range of 236 to 237 °C.
Molecule `N#CCCCCCCn1c(-c2ccccc2)c(-c2ccccc2)n(-c2ccccc2)c1=O` displayed a melting point of 100 to 101 °C.
`O=C(c1ccc(F)cc1)C1CCN(CCCn2c(=O)[nH]c3cc(Cl)ccc32)CC1` gave a melting point of 164 °C.
As for `CCCCC(=O)OC1(C(=O)CO)CCC2C3CC(C)C4=CC(=O)CCC4(C)C3C(O)CC21C` (stereo not drawn), the melting point amounted to 160 °C.
Then `O=C(O)c1cc(NCc2c(F)c(F)c(C(F)(F)F)c(F)c2F)ccc1OC(F)(F)F`, with 38 °C; and `CCSc1nsc(NC(=O)NC)c1C(N)=O`, with 205 °C.
For `CN(C)Cc1c(-c2ccccc2)oc2c(CO)cccc2c1=O`, the melting point came out at 150 °C.
In turn, `COc1ccc(Nc2ccccc2)c2c1c(CCN(C)C)cn2C` showed a melting point of 158 to 160 °C.
In turn, `N#CSCC(=O)c1cccc(Br)c1` displayed a melting point of 91 to 93 °C.
Then `COc1cc(Br)c(/C=C/c2cc(/C=C/c3ccc4cc[nH]c4c3)[nH]n2)cc1O`, with 137 to 142 °C.
The same measure for `Cn1nnnc1SCC1c2cc(O)c(O)cc2CCN1C(=O)OCC(Cl)(Cl)Cl` (stereo not drawn): 201 to 207 °C; for `COc1ccc(/C=C/C(=O)OCC(=O)COC(=O)/C=C/c2ccc(OC)cc2)cc1`: 146 to 148 °C; for `COC(=O)c1cc(Cl)cc(C=O)c1O`: 132 to 134 °C.
`CCc1ccc2c(c1)C=Cc1cc(CC)ccc1C2c1cn(Cc2nc(C(=O)O)cs2)c(=O)[nH]c1=S` showed a melting point of 162 to 165 °C.
Then `CCOC(=O)c1cc(=O)c2ccc([N+](=O)[O-])c(C)c2o1`, with 120 °C; and `CNC(=O)Nc1snc(S(C)=O)c1C(N)=O` (stereo not drawn), with greater than 355 °C.
As to `Cc1noc([C@@H](Cc2ccccc2)NC(=O)[C@@H](Cc2ccc3ccccc3c2)NC(=O)c2cccc(CNC(=O)OC(C)(C)C)c2)n1`, the melting point was in the range of 176 to 178 °C.
Molecule `ClCCCCCOc1ccc(C2=C(c3ccc(OC4CCCCO4)cc3)CCCc3cc(OC4CCCCO4)ccc32)cc1` (stereo not drawn) showed a melting point of 110 to 112 °C.
The same measure for `CC(C)(O)c1ccc(CNC(=O)c2cccnc2Oc2ccc3ncoc3c2)cc1`: 92 to 94 °C; for `Cc1nnc(C(F)(F)F)n1-c1ccccc1`: 118 °C; for `O=C1c2ccccc2C(=O)N1Cc1ccc(I)cc1Cl`: 140 to 142 °C.
Then `CCSc1sc(C#N)c(N(C)C(C)=O)c1C#N`, with 68 °C; and `O=C=Nc1ccc2c(c1)C(=O)OC2=O`, with 80 to 82 °C; and `CC(=O)NN=C1CC2(CCN(C)CC2)OC1C` (stereo not drawn), with 164 to 167 °C.
Then `CCCCC=NNC1=NCCc2ccccc21`, with 147 to 148 °C; and `Nc1cc(Cl)nc(S(=O)(=O)Cc2cccc(Br)c2)n1`, with 191 to 192 °C; and `COc1ccc2c(Cl)c(C(=O)Cl)sc2c1`, with 120 to 121 °C.
The molecule `O=C(Nc1cc(S(=O)(=O)N(CCO)CCO)sc1Cl)c1cnn2c(C(F)F)cc(-c3ccc(C(F)(F)F)cc3)nc12` showed a melting point of 216 °C.
For `Fc1cc(-c2ccc3nnn(Cc4ccc5ncccc5c4)c3n2)ccc1OCC1CC1`, the melting point was 160 to 162 °C.
Then `CN(C)CC(O)CC1(O)c2ccccc2CCc2ccccc21` (stereo not drawn), with 144 to 146 °C.
The molecule `OCCc1nccn1CCCc1ccc(OCc2ccccc2)cc1` showed a melting point of 80 to 82 °C.
Then `CC(C)(C)OC(=O)N[C@@H]1C[C@H](CO)[C@@H](O)C1`, with 126 to 128 °C.
The same measure for `CC(C)(C1OCCO1)C(O)C(Cc1ccc(Cl)cc1Cl)n1cncn1` (stereo not drawn): 178 to 181 °C.
Then `Cc1c(NC(=O)CC(C)(C)C)cc2c(c1C)OC(C)(C)C2c1ccccc1OC(F)(F)F` (stereo not drawn), with 155 to 156 °C; and `COC(=O)C(CCCCNC(=O)OCc1ccccc1)NC(=O)CCC(C)C1CCC2C3C(O)CC4CC(O)CCC4(C)C3CC(O)C12C` (stereo not drawn), with 80 to 83 °C.
Regarding `O=C(c1ccc(Nc2ccccc2[N+](=O)[O-])cc1)c1ccccc1O`, the melting point lay in the range of 189 to 193 °C.
